Data as given in EP0364581A1, “METHOD OF STERILIZING PLANT POLLEN” (VSESOJUZNY NAUCHNO-ISSLEDOVATELSKY INST. SELSKOKHOZYAISTV. …, priority 1988, dated 1989).

Assays:
Assay in all cases: field test of gametocidal activity (sterilisation of anthers)
[1] = tested on: Hirse Sorte K-9693 Kormovoe I; type: in vivo; details: V. Periode, 1%ige wäßrige Emulsion, 8 kg/ha; for Prozentsatz des Ansetzens der Körner bei freier Bestäubung: control = 100
Text: (§1) Die gametozide Aktivität der erfindungsgemäßen Sterilisationsmittel war in Feldversuch in verschiedenen bodenklimatischen Zonen mit Teilstücken von 10 m^2 Größe in drei-- bis viermaliger Wiederholung nachgewiesen. Jedes Sterilisationsmittel wurde mindestens 5 Jahre lang geprüft.
(§2) Die Entwicklung der Perioden der Organogenese wird zytologisch überwacht. Die Behandlung von Pflanzen mit dem Sterilisationsmittel erfolgt am Anfang der fünften Periode der Organogenese nach Kupermann.
(§3) Mit dem Ahrenschieben verwirklicht man die Isolierung von Hauptähren und anderen Stockwerken in Pergamentbeuteln. Bei Weizen und Tritikale werden Einzelisolatoren verwendet. Bei Roggen schließt man je 1 Ähre von 5 bis 7 verschiedenen nebeneinander befindlichen Pflanzen in einen gemeinsamen Isolator ein. Bei Hirse wird jede Rispe getrennt isoliert. Der Sterilitätsprozentsatz (X) für Weizen, Roggen, Tritikale und Hirse wird nach der Formel [formula]
(§4) Samen von unbehandelten Kontrollpflanzen ermittelt.
(§5) Die Kornzahl in nicht isolierten Ähren von Kontrollpflanzen wird bedingt für 100% Ansetzen bei freier Bestäubung angenommen.
(§6) Um zuverlässige Angaben zu erhalten, verwendet man 20 bis 25 Isolatoren jeder Wiederholung für Weizen und Tritikale, 10 bis 15 Isolatoren jeder Wiederholung für Roggen und Hirse.
Pflanzen der Hirse Sorte K-9693 Kormovoe I werden in der V. Periode der Organogenese (nach Kupermann) mit einer 1%igen wäßrigen Emulsion von Ammoniumsalz der 2-Methyl-3-zyklo- nexenkarbonsäure, Phthalsäuredipropylester, Phthalsäuredibutylester, Phthalsäurediisobutylester, 2-Methyl-3-zyklo- hexenkarbonsäuremethylester, Phthalsäuredihexylester behandelt. Die Emulsion enthält 0,01 Masse% Dodezylsulfat und 0,1 Masse% C12-C14-Kalziumalkylbenzolsulfonat. Der Verbrauch an Präparat beträgt 8 kg/ha. Als Kontrolle dienen Pflanzen, behandelt mit einem Verdünner ohne Sterilisationsmittel. Die Prüfergebnisse sind in der Tabelle 18 angeführt. […] Periode der Organogenese erhalten.

[2] = tested on: Winterweizens Sorte Kharkovskaya 81; type: in vivo, Winterweizen; details: V. und VI. Periode, 2%ige wäßrige Emulsion, 12 kg/ha; for Prozentsatz des Ansetzens der Körner bei freier Bestäubung: control = 100
Text: as §1, §2, §3, §4, §5, §6
Pflanzen des Winterweizens Sorte Kharkovskaya 81 werden in der V. und VI. Periode der Organogenese (nach Kupermann) mit einer 2%igen wäßrigen Emulsion von Natriumsalz der 2-Methyl-3-zyklohexenkarbonsäure, Phthalsäuredihexylester, Ammoniumsalz der 2-Methyl-3-zyklohexenkarbon- säure, Phthalsäuredibutylester, Phthalsäurediallylester behandelt. Die Emulsion enthält 0,01 Masse% Dodezylsulfat und 0,1 Masse% C12-C14 -Kalziumalkylbenzolsulfonat. Der Verbrauch an Präparat beträgt 12 kg/ha.
Die Prüfergebnisse sind in der Tabelle 4 angeführt. Als Kontrolle dienten Pflanzen, behandelt ähnlich wie in Beispiel 1.

[3] = tested on: Winterweizens Sorte Polesskaya-70; type: in vivo, Winterweizen; details: V. Periode, 2%ige wäßrige Emulsion, 16 kg/ha; for Prozentsatz des Ansetzens bei freier Bestäubung: control = 100
Text: as §1, §2, §3, §4, §5, §6
Pflanzen des Winterweizens Sorte Polesskaya-70 behandelt man in der V. Periode der Organogenese durch Zerstäubund einer 2%igen wäßrigen Emulsion von Phthalsäurediäthylester, Phthalsäurediallylester, Phthalsäuredihexylester, Kaliumsalz der 2-Methyl-3-zyklohexenkarbonsäure, Ammoniumsalz der 2-Methyl-3-zyklohexenkarbonsäure mit Hilfe einer Rückenspritze. Die Emulsion enthält 0,01 Masse% Tetrahydrofuran und 0,1 Masse% C12 -C14 -Kalziumalkylbenzolsulfonat.
Der Verbrauch an Präparat beträgt 16 kg/ha. Als Kontrolle dienen Pflanzen, behandelt mit dem Verdünner ohne Sterilisationsmittel.

[4] = tested on: diploidem Roggen Sorte Voskhod 2; type: in vivo; details: V. Periode, 1%ige wäßrige Emulsion, 10 kg/ha; for Prozentsatz des Ansetzens der Körner bei freier Bestäubung: control = 100
Text: as §1, §2, §3, §4, §5, §6
Pflanzen von diploidem Roggen Sorte Voskhod 2 werden in der V. Periode der Organogenese (nach Kupermann) mit einer l%igen wäßrigen Emulsion von Phthalsäurediäthylester, Phthalsaurediisobutylester, Kaliumsalz der 2-Methyl-3-zyklohexen- karbonsäure, Ammoniumsalz der 2-Methyl-3-zyklohexenkarbon- säure, 2-Methyl-3-zyklohexenkarbonsäuremethylester, Phthalsaurediallylester behandelt.
Die Emulsion enthält 0,01 Masse% Dodezylsulfat und 0,1 Masse% C12-C14-Kalziumalkylbenzolsulfonat. Der Verbrauch an Präparat beträgt 10 kg/ha, Als Kontrolle dienen Pflanzen, behandelt mit einem Verdünner ohne Sterilisationsmittel.

[5] = tested on: diploidem Roggen Sorte Kharkovskaya 55; type: in vivo; details: V. und VI. Periode, 1%ige wäßrige Emulsion, 6 kp/ha; for Prozentsatz des Ansetzens der Körner bei freier Bestäubung: control = 100
Text: as §1, §2, §3, §4, §5, §6
Pflanzen von diploidem Roggen Sorte Kharkovskaya 55 werden in der V. und VI. Periode der Organogenese (nach Kupermann) mit einer 1%igen wäßrigen Emulsion von Phthalsäuredibutylester, Phthalsäurediisobutylester, Phthalsäurediallylester, Phthalsäuredihexylester, 2-Methyl-3-zyklohexen- karbonsäuremethylester, Natriumsalz der 2-Methyl-3-zyklohex- enkarbonsäure behandelt. Die Emulsion enthält 0,01 Masse% Dimethylformamid und 0,1 Masse% C12C14-Kalziumalkylbenzolsulfonat.
Der Verbrauch an Präparat beträgt 6 kp/ha. Als Kontrolle dienen Pflanzen, benandelt mit einem Verdünner ohne Sterilisationsmittel.

COC(=O)C1CCC=CC1C (stereo not drawn) [Beispiel 101, 2-Methyl-3-zyklo-hexenkarbonsäuremethylester]
Kornzahl der Rispe bei freier Bestäubung [1]: 127,8
Kornzahl der Rispe im Isolator [1]: 0,0
Prozentsatz der Sterilität [1]: 100,0%
Prozentsatz des Ansetzens der Körner bei freier Bestäubung [1]: 87,1%

CC1C=CCCC1C(=O)O.N (stereo not drawn) [Beispiel 20, Ammoniumsalz der 2-Methyl-3-zyklohexenkarbon-säure]
Kornzahl der Ähre bei freier Bestäubung [2]: 31,7
Kornzahl der Ähre im Isolator [2]: 0,0
Prozentsatz der Sterilität [2]: 100,0%
Prozentsatz des Ansetzens der Körner bei freier Bestäubung [2]: 93,5%

CC1C=CCCC1C(=O)O.N (stereo not drawn) [Beispiel 13, Ammoniumsalz der 2-Methyl-3-zyklohexenkarbonsäure]
Kornzahl der Ähre bei freier Bestäubung [3]: 36,9
Kornzahl der Ähre im Isolator [3]: 3,7
Prozentsatz der Sterilität [3]: 89,2%
Prozentsatz des Ansetzens bei freier Bestäubung [3]: 97,6%

CCCCCCOC(=O)c1ccccc1C(=O)OCCCCCC [Beispiel 11, Phthalsäuredihexylester]
Kornzahl der Ähre bei freier Bestäubung [3]: 36,0
Kornzahl der Ähre im Isolator [3]: 0,1
Prozentsatz der Sterilität [3]: 99,7%
Prozentsatz des Ansetzens bei freier Bestäubung [3]: 95,2%

COC(=O)C1CCC=CC1C (stereo not drawn) [Beispiel 80, 2-Methyl-3-zyklohexenkarbonsäuremethylester]
Kornzahl der Ähre bei freier Bestäubung [4]: 50,2
Kornzahl der Ähre im Isolator [4]: 0,0
Prozentsatz der Sterilität [4]: 100,0%
Prozentsatz des Ansetzens der Körner bei freier Bestäubung [4]: 91,9%

CCCCOC(=O)c1ccccc1C(=O)OCCCC [Beispiel 21, Phthalsäuredibutylester]
Kornzahl der Ähre bei freier Bestäubung [2]: 28,6
Kornzahl der Ähre im Isolator [2]: 0,0
Prozentsatz der Sterilität [2]: 100,0%
Prozentsatz des Ansetzens der Körner bei freier Bestäubung [2]: 84,4%

CC1C=CCCC1C(=O)[O-].[K+] (stereo not drawn) [Beispiel 12, Kaliumsalz der 2-Methyl-3-zyklohexenkarbonsäure]
Kornzahl der Ähre bei freier Bestäubung [3]: 35,8
Kornzahl der Ähre im Isolator [3]: 0,0
Prozentsatz der Sterilität [3]: 100,0%
Prozentsatz des Ansetzens bei freier Bestäubung [3]: 94,7%

CC(C)COC(=O)c1ccccc1C(=O)OCC(C)C [Beispiel 69, Phthalsäurediisobutylester]
Kornzahl der Ähre bei freier Bestäubung [5]: 50,8
Kornzahl der Ähre im Isolator [5]: 0,2
Prozentsatz der Sterilität [5]: 99,6%
Prozentsatz des Ansetzens der Körner bei freier Bestäubung [5]: 96,9%

CC(C)COC(=O)c1ccccc1C(=O)OCC(C)C [Beispiel 100, Phthalsäurediisobutylester]
Kornzahl der Rispe bei freier Bestäubung [1]: 110,4
Kornzahl der Rispe im Isolator [1]: 0,0
Prozentsatz der Sterilität [1]: 100,0%
Prozentsatz des Ansetzens der Körner bei freier Bestäubung [1]: 75,3%

C=CCOC(=O)c1ccccc1C(=O)OCC=C [Beispiel 10, Phthalsäurediallylester]
Kornzahl der Ähre bei freier Bestäubung [3]: 35,6
Kornzahl der Ähre im Isolator [3]: 6,2
Prozentsatz der Sterilität [3]: 82,0%
Prozentsatz des Ansetzens bei freier Bestäubung [3]: 94,1%

CC(C)COC(=O)c1ccccc1C(=O)OCC(C)C [Beispiel 77, Phthalsaurediisobutylester]
Kornzahl der Ähre bei freier Bestäubung [4]: 52,8
Kornzahl der Ähre im Isolator [4]: 0,0
Prozentsatz der Sterilität [4]: 100,0%
Prozentsatz des Ansetzens der Körner bei freier Bestäubung [4]: 96,7%

CC1C=CCCC1C(=O)O (stereo not drawn) [Beispiel 73, Natriumsalz der 2-Methyl-3-zyklohex-enkarbonsäure]
Kornzahl der Ähre bei freier Bestäubung [5]: 50,1
Kornzahl der Ähre im Isolator [5]: 0,0
Prozentsatz der Sterilität [5]: 100,0%
Prozentsatz des Ansetzens der Körner bei freier Bestäubung [5]: 95,6%

CC1C=CCCC1C(=O)O (stereo not drawn) [Beispiel 78, Kaliumsalz der 2-Methyl-3-zyklohexen-karbonsäure]
Kornzahl der Ähre bei freier Bestäubung [4]: 52,2
Kornzahl der Ähre im Isolator [4]: 0,1
Prozentsatz der Sterilität [4]: 99,8%
Prozentsatz des Ansetzens der Körner bei freier Bestäubung [4]: 95,6%

CCCCOC(=O)c1ccccc1C(=O)OCCCC [Beispiel 99, Phthalsäuredibutylester]
Kornzahl der Rispe bei freier Bestäubung [1]: 127,9
Kornzahl der Rispe im Isolator [1]: 0,0
Prozentsatz der Sterilität [1]: 100,0%
Prozentsatz des Ansetzens der Körner bei freier Bestäubung [1]: 87,9%

CCCOC(=O)c1ccccc1C(=O)OCCC [Beispiel 98, Phthalsäuredipropylester]
Kornzahl der Rispe bei freier Bestäubung [1]: 130,7
Kornzahl der Rispe im Isolator [1]: 0,0
Prozentsatz der Sterilität [1]: 100,0%
Prozentsatz des Ansetzens der Körner bei freier Bestäubung [1]: 89,1%

CCOC(=O)c1ccccc1C(=O)OCC [Beispiel 9, Phthalsäurediäthylester]
Kornzahl der Ähre bei freier Bestäubung [3]: 36,8
Kornzahl der Ähre im Isolator [3]: 0,2
Prozentsatz der Sterilität [3]: 99,4%
Prozentsatz des Ansetzens bei freier Bestäubung [3]: 97,4%

CCCCOC(=O)c1ccccc1C(=O)OCCCC [Beispiel 68, Phthalsäuredibutylester]
Kornzahl der Ähre bei freier Bestäubung [5]: 48,6
Kornzahl der Ähre im Isolator [5]: 0,0
Prozentsatz der Sterilität [5]: 100,0%
Prozentsatz des Ansetzens der Körner bei freier Bestäubung [5]: 92,7%

C=CCOC(=O)c1ccccc1C(=O)OCC=C [Beispiel 70, Phthalsäurediallylester]
Kornzahl der Ähre bei freier Bestäubung [5]: 51,2
Kornzahl der Ähre im Isolator [5]: 0,1
Prozentsatz der Sterilität [5]: 99,8%
Prozentsatz des Ansetzens der Körner bei freier Bestäubung [5]: 97,7%

CC1C=CCCC1C(=O)O.N (stereo not drawn) [Beispiel 97, Ammoniumsalz der 2-Methyl-3-zyklo-nexenkarbonsäure]
Kornzahl der Rispe bei freier Bestäubung [1]: 121,6
Kornzahl der Rispe im Isolator [1]: 0,0
Prozentsatz der Sterilität [1]: 100,0%
Prozentsatz des Ansetzens der Körner bei freier Bestäubung [1]: 82,9%

CCCCCCOC(=O)c1ccccc1C(=O)OCCCCCC [Beispiel 71, Phthalsäuredihexylester]
Kornzahl der Ähre bei freier Bestäubung [5]: 49,7
Kornzahl der Ähre im Isolator [5]: 0,0
Prozentsatz der Sterilität [5]: 100,0%
Prozentsatz des Ansetzens der Körner bei freier Bestäubung [5]: 94,8%

CCOC(=O)c1ccccc1C(=O)OCC [Beispiel 76, Phthalsäurediäthylester]
Kornzahl der Ähre bei freier Bestäubung [4]: 53,4
Kornzahl der Ähre im Isolator [4]: 0,2
Prozentsatz der Sterilität [4]: 99,6%
Prozentsatz des Ansetzens der Körner bei freier Bestäubung [4]: 97,8%

CCCCCCOC(=O)c1ccccc1C(=O)OCCCCCC [Beispiel 102, Phthalsäuredihexylester]
Kornzahl der Rispe bei freier Bestäubung [1]: 136,6
Kornzahl der Rispe im Isolator [1]: 0,0
Prozentsatz der Sterilität [1]: 100,0%
Prozentsatz des Ansetzens der Körner bei freier Bestäubung [1]: 93,1%

CC1C=CCCC1C(=O)O (stereo not drawn) [Beispiel 79, Ammoniumsalz der 2-Methyl-3-zyklohexenkarbon-säure]
Kornzahl der Ähre bei freier Bestäubung [4]: 51,7
Kornzahl der Ähre im Isolator [4]: 0,0
Prozentsatz der Sterilität [4]: 100,0%
Prozentsatz des Ansetzens der Körner bei freier Bestäubung [4]: 95,0%

C=CCOC(=O)c1ccccc1C(=O)OCC=C [Beispiel 81, Phthalsaurediallylester]
Kornzahl der Ähre bei freier Bestäubung [4]: 53,5
Kornzahl der Ähre im Isolator [4]: 0,8
Prozentsatz der Sterilität [4]: 98,4%
Prozentsatz des Ansetzens der Körner bei freier Bestäubung [4]: 97,9%
